Values of other authors as cited in patent US20240173315A1 (OWP Pharmaceuticals, Inc., priority 2022, published 2024).
Structures can show the parent of a compound that is named as a salt. Where two headings read alike, the source gives them in different places.

Tests used:
[1] = humans, oral
[2] = oral dose
CYP3A4 = target: T1, CYP3A4 (Homo sapiens, UniProt P08684); conditions: in vitro
T1 construct: In vitro studies in human liver microsomes; from tissue; host or cells: human liver microsomes
T1 sequence (P08684 whole entry): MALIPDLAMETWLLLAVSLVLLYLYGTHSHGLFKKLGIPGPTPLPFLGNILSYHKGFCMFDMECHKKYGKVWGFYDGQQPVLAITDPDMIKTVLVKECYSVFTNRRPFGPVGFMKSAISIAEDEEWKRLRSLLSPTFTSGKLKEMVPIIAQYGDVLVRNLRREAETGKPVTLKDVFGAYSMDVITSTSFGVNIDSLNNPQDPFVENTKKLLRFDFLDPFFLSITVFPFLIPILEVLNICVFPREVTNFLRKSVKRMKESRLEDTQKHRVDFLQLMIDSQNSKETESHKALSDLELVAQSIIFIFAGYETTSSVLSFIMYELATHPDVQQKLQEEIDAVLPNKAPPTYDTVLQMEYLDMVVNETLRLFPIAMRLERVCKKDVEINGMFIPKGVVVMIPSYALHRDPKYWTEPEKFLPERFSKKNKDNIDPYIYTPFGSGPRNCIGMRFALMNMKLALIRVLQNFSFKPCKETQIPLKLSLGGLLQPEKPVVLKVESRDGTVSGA

SMILES	time after dosing at which peak plasma levels occur ([1]; taken on an empty stomach)	effect of food on amount of drug absorbed ([1]; taken shortly after ingestion of food)	time after dosing at which peak plasma levels occur ([1]; taken with food) [h]	excreted unchanged in the urine [2]	metabolism in human liver microsomes (CYP3A4)
O=c1n(CCCN2CCN(c3cccc(Cl)c3)CC2)nc2ccccn12 [trazodone hydrochloride]	approximately one	increase	~2		
O=c1n(CCCN2CCN(c3cccc(Cl)c3)CC2)nc2ccccn12 [trazodone, 2-{3-[4-(3-chlorophenyl)piperazin-1-yl]propyl}[1,2,4]triazolo[4,3-a]pyridin-3(2H)-one]				less than 1 % of an oral dose	metabolized, via oxidative cleavage, to an active metabolite, m-chlorophenvlpipera.zine (mCPP) by CYP3A4
